IC50 data for 22 molecules are collected here from patent US9856279B2 (AGIOS PHARMACEUTICALS, INC, priority 2011, dated 2018).

The target in one test is IDH1 R132H (Homo sapiens, UniProt O75874, R132H). Kind of test: Assay for IDH1 R132H inhibitors (NADPH/aKG, resazurin detection). In kind it is biochemical. The note with it: enzyme assay of Example 12; read-out: IDH1R132H IC50. In outline:
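Read-out is resorufin fluorescence (Ex544/Em590) 5 min after adding a 30 μM resazurin detection mix. Before that, mutant enzyme (0.2 μg/ml in its mix) ran 50 min at room temperature with compound, 8 uM NADPH and 2 mM aKG (mix levels) in Tris pH 7.5 with NaCl, MgCl2, BSA.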
Background: Resazurin is reduced to fluorescent resorufin, in cell work by metabolically active cells.

The test system of the next test is U87MG cells. The test is described as follows: Cellular assay for IDH1m inhibitors: inhibition of 2-HG production (LC-MS, 48 hours) in U87MG cells. The test is classed as cell-based. The note with it: Homo sapiens, U-87 MG, inhibition of 2-HG production, U87R132H cells; read-out: U87R132H IC50. In outline:
(§1)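 5000 cells/well, DMEM + 10% FBS, overnight 37 °C/5% CO2; compound added (0.2% DMSO final), 48 h; medium sampled for LC-MS 2-HG; IC50 vs DMSO control.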

A further test concerns HT1080 cells. The test is described as follows: Cellular assay for IDH1m inhibitors: inhibition of 2-HG production (LC-MS, 48 hours) in HT1080 cells. In kind it is cell-based. The note with it: Homo sapiens, HT-1080; inhibition of 2-HG production, HT1080 cells; read-out: HT1080 IC50. An outline of the steps: as §1

As usually defined, the IC50 is the point on the concentration scale where inhibition reaches its midpoint.

The structures appear in SMILES notation.

Chain of IDH1 R132H (O75874 whole entry R132H): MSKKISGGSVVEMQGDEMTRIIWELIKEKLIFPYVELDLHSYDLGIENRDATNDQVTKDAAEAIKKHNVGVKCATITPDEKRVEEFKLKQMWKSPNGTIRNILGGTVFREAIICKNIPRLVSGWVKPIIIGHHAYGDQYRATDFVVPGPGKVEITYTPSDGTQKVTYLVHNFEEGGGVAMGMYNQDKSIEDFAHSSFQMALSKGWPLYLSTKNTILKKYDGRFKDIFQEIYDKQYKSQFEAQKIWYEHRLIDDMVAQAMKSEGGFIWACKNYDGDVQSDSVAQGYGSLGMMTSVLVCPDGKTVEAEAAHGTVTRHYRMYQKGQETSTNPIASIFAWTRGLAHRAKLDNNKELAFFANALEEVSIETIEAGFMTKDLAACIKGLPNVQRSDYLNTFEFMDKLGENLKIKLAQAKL

As for `C=Cc1cc(-c2cc(C#N)c(N3CCN(C(=O)CCCOP(=O)(OC(C)(C)C)OC(C)(C)C)[C@H](C4CC4)C3)nc2C2CC2)ccn1` [Compound 804, (R)-di-tert-butyl 4-(4-(5-cyano-2-cyclopropyl-2′-vinyl-3,4′-bipyridin-6-yl)-2-cyclopropylpiperazin-1-yl)-4-oxobutyl phosphate], the concentration for half-maximal inhibition (IC50) at IDH1 R132H is < 500 nM; with U87MG cells, 500 to 1000 nM; in the test on HT1080 cells it was < 500 nM.
Turning to `C=Cc1ccc2ccc(Nc3cc(C#N)c(N4CCN(C(=O)CCOC)[C@H](C)C4)nc3C3CC3)cc2n1` [Compound 732, (R)-6-cyclopropyl-2-(4-(3-methoxypropanoyl)-3-methylpiperazin-1-yl)-5-(2-vinylquinolin-7-ylamino) nicotinonitrile], the IC50 at IDH1 R132H, in the test with U87MG cells and in the test on HT1080 cells was < 500 nM each time.
In the case of `COCCC(=O)N1CCN(c2nc(C3CC3)c(OCc3cccc([N+](=O)[O-])c3)cc2C#N)C[C@H]1C` [Compound 312, (R)-6-cyclopropyl-2-(4-(3-methoxypropanoyl)-3-methylpiperazin-1-yl)-5-(3-nitrobenzyloxy)nicotinonitrile], the half-maximal inhibitory concentration (IC50) is < 500 nM at IDH1 R132H, 1000 to 10000 nM in the test on U87MG cells and 500 to 1000 nM in the test on HT1080 cells.
As for `C=Cc1cc(-c2c(C3CC3)nc(N3CCN(C(=O)CC4CCCO4)[C@H](C4CC4)C3)c(C#N)c2C)ccn1` (stereo partly drawn) [Compound 805, 2-cyclopropyl-6-((3R)-3-cyclopropyl-4-(2-(tetrahydrofuran-2-yl)acetyl)piperazin-1-yl)-4-methyl-2′-vinyl-[3,4′-bipyridine]-5-carbonitrile], the IC50 on IDH1 R132H, in the test with U87MG cells and with HT1080 cells was < 500 nM each time.
For the molecule `COCCC(=O)N1CCN(c2nc(C3CC3)c(O[C@@H](C)c3ccccc3)cc2C#N)C[C@H]1C` [Compound 303, 6-cyclopropyl-2-((R)-4-(3-methoxypropanoyl)-3-methylpiperazin-1-yl)-5-((S)-1-phenylethoxy)nicotinonitrile], the IC50 is < 500 nM at IDH1 R132H, 1000 to 10000 nM with U87MG cells and 1000 to 10000 nM with HT1080 cells.
Regarding `COCCC(=O)N1CCN(c2nc(C3CC3)c(-c3cccc4cccnc34)cc2C#N)C[C@H]1C` [Compound 342, (R)-6-cyclopropyl-2-(4-(3-methoxypropanoyl)-3-methylpiperazin-1-yl)-5-(quinolin-8-yl)nicotinonitrile], the IC50 at IDH1 R132H, in the test on U87MG cells and with HT1080 cells was < 500 nM in each case.
For `COCCC(=O)N1CCN(c2nc(C3CC3)c(-c3cccc(NC(=O)C(C)=O)c3)cc2C#N)C[C@H]1C` [Compound 416, (R)—N-(3-(5-cyano-2-cyclopropyl-6-(4-(3-methoxypropanoyl)-3-methylpiperazin-1-yl)pyridin-3-yl)phenyl)-2-oxopropanamide], the IC50 at IDH1 R132H was in the range of 500 to 1000 nM; with U87MG cells it was 500 to 1000 nM; with HT1080 cells, 1000 to 10000 nM.
On to `C=Cc1cc(-c2c(C3CC3)nc(N3CCN(C(=O)C[C@H]4CCO4)[C@H](C4CC4)C3)c(C#N)c2C)ccn1` [Compound 760, 2-cyclopropyl-6-((R)-3-cyclopropyl-4-(2-((R)-oxetan-2-yl)acetyl)piperazin-1-yl)-4-methyl-2′-vinyl-3,4′-bipyridine-5-carbonitrile], for which the IC50 on IDH1 R132H, with U87MG cells and with HT1080 cells was < 500 nM in each case.
For the molecule `COCCC(=O)N1CCN(c2nc(C3CC3)c(-c3ccc(F)cc3F)c(C)c2C#N)C[C@H]1C` [Compound 264, 6-cyclopropyl-5-(2,4-difluorophenyl)-2-((R)-4-(3-methoxypropanoyl)-3-methylpiperazin-1-yl)-4-methylnicotinonitrile], the IC50 is 500 to 1000 nM on IDH1 R132H, 1000 to 10000 nM in the test on U87MG cells and 1000 to 10000 nM with HT1080 cells.
With `CCO[C@@H]1C[C@@H]1C(=O)N1CCN(c2nc(C3CC3)c(-c3cccc4cnccc34)cc2C#N)C[C@H]1C1CC1` [Compound 526, 6-cyclopropyl-2-((R)-3-cyclopropyl-4-((1S,2R)-2-ethoxycyclopropanecarbonyl)piperazin-1-yl)-5-(isoquinolin-5-yl)nicotinonitrile], the IC50 was 500 to 1000 nM at IDH1 R132H, < 500 nM with U87MG cells and < 500 nM in the test with HT1080 cells.
`C=Cc1cc(-c2cc(C#N)c(N3CCN(C(=O)COC)[C@H](C(C)C)C3)nc2C2CC2)ccn1` [Compound 726, (R)-2-cyclopropyl-6-(3-isopropyl-4-(2-methoxyacetyl)piperazin-1-yl)-2′-vinyl-3,4′-bipyridine-5-carbonitrile]: the IC50 at IDH1 R132H, in the test with U87MG cells and in the test with HT1080 cells was < 500 nM in each case.
For `C=Cc1cnnc(-c2c(C3CC3)nc(N3CCN(C(=O)/C=C/CCO)[C@H](C4CC4)C3)c(C#N)c2C)c1` [Compound 769, (R,E)-6-cyclopropyl-2-(3-cyclopropyl-4-(5-hydroxypent-2-enoyl)piperazin-1-yl)-4-methyl-5-(5-vinylpyridazin-3-yl)nicotinonitrile], the IC50 at IDH1 R132H, in the test on U87MG cells and in the test on HT1080 cells was < 500 nM each time.
On to `COCCC(=O)N1CCN(c2nc(C3CC3)c(-c3cnnc(OS(=O)(=O)C(F)(F)F)c3)cc2C#N)C[C@H]1C1CC1` [Compound 675, (R)-5-(5-cyano-2-cyclopropyl-6-(3-cyclopropyl-4-(3-methoxypropanoyl)piperazin-1-yl)pyridin-3-yl)pyridazin-3-yl trifluoromethanesulfonate], for which the IC50 was < 500 nM at IDH1 R132H, 500 to 1000 nM with U87MG cells and 1000 to 10000 nM with HT1080 cells.
Turning to `C=Cc1cc(-c2cc(C#N)c(N3CCN(C(=O)CCO)[C@H](C)C3)nc2C2CC2)c2ccccc2n1` [Compound 591, (R)-6-cyclopropyl-2-(4-(3-hydroxypropanoyl)-3-methylpiperazin-1-yl)-5-(2-vinylquinolin-4-yl)nicotinonitrile], the IC50 at IDH1 R132H, in the test on U87MG cells and in the test with HT1080 cells was < 500 nM throughout.
With `COCCC(=O)N1CCN(c2nc(C3CC3)c(-c3ccc(F)c(C#N)c3)c(C)c2C#N)C[C@H]1C` [Compound 321, (R)-5-(3-cyano-4-fluoro-phenyl)-6-cyclopropyl-2-[4-(3-methoxy-propionyl)-3-methyl-piperazin-1-yl]-4-methyl-nicotinonitrile], the IC50 was < 500 nM on IDH1 R132H, < 500 nM in the test on U87MG cells and 500 to 1000 nM with HT1080 cells.
For `C=Cc1ccc2c(-c3cc(C#N)c(N4CCN(C(=O)CCO)[C@H](C5CC5)C4)nc3C3CC3)cncc2n1` [Compound 735, (R)-6-cyclopropyl-2-(3-cyclopropyl-4-(3-hydroxypropanoyl)piperazin-1-yl)-5-(2-vinyl-1,7-naphthyridin-5-yl)nicotinonitrile], the IC50 on IDH1 R132H, in the test with U87MG cells and with HT1080 cells was < 500 nM throughout.
In the case of `C#CC(=O)Nc1cccc(-c2cc(C#N)c(N3CCN(C(=O)CCOC)[C@H](C)C3)nc2C2CC2)c1` [Compound 428, (R)—N-(3-(5-cyano-2-cyclopropyl-6-(4-(3-methoxypropanoyl)-3-methylpiperazin-1-yl)pyridin-3-yl)phenyl)propiolamide], the IC50 is < 500 nM on IDH1 R132H, 500 to 1000 nM in the test with U87MG cells and < 500 nM in the test with HT1080 cells.
As for `C=Cc1cc(-c2cc(C#N)c(N3CCN(C(=O)CCOC)[C@H](C(C)C)C3)nc2C2CC2)c2cccnc2n1` [Compound 626, (R)-6-cyclopropyl-2-(3-isopropyl-4-(3-methoxypropanoyl)piperazin-1-yl)-5-(2-vinyl-1,8-naphthyridin-4-yl)nicotinonitrile], the IC50 on IDH1 R132H, with U87MG cells and with HT1080 cells was < 500 nM each time.
As for `COCCC(=O)N1CCN(c2nc(C3CC3)c(OCc3cccc(NC(=O)CBr)c3)cc2C#N)C[C@H]1C` [Compound 382, (R)-2-bromo-N-(3-((5-cyano-2-cyclopropyl-6-(4-(3-methoxypropanoyl)-3-methylpiperazin-1-yl)pyridin-3-yloxy)methyl)phenyl)acetamide], the IC50 at IDH1 R132H is < 500 nM; with U87MG cells, 500 to 1000 nM; in the test with HT1080 cells, < 500 nM.
With `C=CS(=O)(=O)Nc1cccc(-c2c(C3CC3)nc(N3CCN(C(=O)C4CC4)[C@H](C4CC4)C3)c(C#N)c2C)c1` [Compound 470, (R)—N-(3-(5-cyano-6-(4-(cyclopropanecarbonyl)-3-cyclopropylpiperazin-1-yl)-2-cyclopropyl-4-methylpyridin-3-yl)phenyl)ethenesulfonamide], the figures for the IC50 on IDH1 R132H, in the test with U87MG cells and with HT1080 cells were < 500 nM, 1000 to 10000 nM and 1000 to 10000 nM, respectively.
As to `C=Cc1cc(-c2cc(C#N)c(N3CCN(C(=O)C[C@H]4CCO4)[C@H](C4CC4)C3)nc2C2CC2)ccn1` [Compound 752, 2-cyclopropyl-6-((R)-3-cyclopropyl-4-(2-((R)-oxetan-2-yl)acetyl)piperazin-1-yl)-2′-vinyl-3,4′-bipyridine-5-carbonitrile], the IC50 at IDH1 R132H, in the test on U87MG cells and in the test on HT1080 cells was < 500 nM throughout.
`C=Cc1cc(-c2c(C3CC3)nc(N3CCN(C(=O)C[C@H]4CCO4)[C@H](C(C)C)C3)c(C#N)c2C)cnn1` [Compound 786, 6-cyclopropyl-2-((R)-3-isopropyl-4-(2-((R)-oxetan-2-yl)acetyl)piperazin-1-yl)-4-methyl-5-(6-vinylpyridazin-4-yl)nicotinonitrile]: the IC50 on IDH1 R132H, in the test with U87MG cells and in the test with HT1080 cells was < 500 nM throughout.
